The test concerns 885724-159-R-J1-PDC KRAS PDC multicell spheroid viability. The test can be described thus: Anticancer human tumor 885724-159-R-J1-PDC patient-derived pancreatic adenocarcinoma cell line growth inhibition [KRAS2]. Particulars: for viability, T/C: stronger effect = lower value. An excerpt: Multicellular complex tumor spheroid response to RAS pathway inhibitors in combination with a targeted agents in patient-derived cell lines with oncogenic KRAS variants from multiple cancer types
A high-throughput screen of multi-cell type tumor spheroids was designed to identify active combinations of targeted small molecules and KRAS pathway inhibitors. Complex spheroids include a stromal component modeled by human endothelial cells (HUVEC) and fibroblasts modeled by human mesenchymal stem cells (MSCs). The concentration ranges selected for each drug and investigational agent were based upon clinically achievable concentrations if the clinical Cmax of the agent was known.
Compounds. The drugs and investigational agents: BI-3406 (NSC825286), BAY-293 (NSC824723), batoprotafib (TNO155; NSC825523), sotorasib (AMG 510; NSC818433), MRTX1257 (NSC819558), elimusertib (BAY 1895344; NSC800525), molibresib (GSK525762; NSC774829), temuterkib (LY3214996; NSC803410), venetoclax (NSC766270), alisertib (NSC759677), olaparib (NSC753686), talazoparib (NSC767125), erdafitinib (NSC781556), ipatasertib (NSC767898), cabozantinib (NSC761068), nintedanib (NSC756659), abemaciclib (NSC768073), docetaxel (NSC628503), trametinib (NSC758246), and sapanisertib (NSC764658) were obtained from the National Cancer Institute (NCI) Developmental Therapeutics Program Chemical Repository. The FDA-approved anticancer drug set is available from the Developmental Therapeutics Program. […] The stock solutions were prepared in dimethyl sulfoxide (DMSO, Sigma-Aldrich, St. Louis, MO, cat. D2650) at 800-fold the tested concentration and stored at -70 degrees C prior to their use. All drugs and investigational agents were tested over a range starting from a high concentration at or near the clinical Cmax and decreasing in half-log increments. If the clinical Cmax for an agent had not been determined, the highest concentration tested was 10 microM.
Cell Culture. All cells were maintained in an incubator at 37 degrees C and 5% CO2 with 95% humidity. The PDC lines were cultured according to standard operating procedures established by the NCI PDMR (https://pdmr.cancer.gov/sops/default.htm). Briefly, all PDCs were thawed and cultured in Matrigel-coated flasks prepared with a working solution of 1X Ham's F-12 nutrient mix, without supplementation (Invitrogen, Waltham, MA, cat. 11765054), 100 U/mL penicillin-streptomycin (Invitrogen, cat. 15140122), and 2.5% Matrigel (Corning Inc., Corning, NY, cat. 354248) for the first three passages. All PDCs were cultured in complete DMEM/F-12 media containing advanced DMEM/F-12 (Invitrogen, cat. 12634028), 4.9% defined fetal bovine serum, heat inactivated (HyClone Laboratories Inc., Logan, UT, cat. SH30070.03HI), 389 ng/mL hydrocortisone (Sigma-Aldrich, cat. H4001), 9.7 ng/mL human EGF recombinant protein (Invitrogen, cat. PHG0313), 23.4 microg/mL adenine (Sigma-Aldrich, cat. A2786), 97.3 U/mL penicillin-streptomycin (Invitrogen, cat. 15140122), 1.9 mM L-glutamine (Invitrogen, cat. 25030081), and 9.7 microM Y-27632 dihydrochloride (Tocris Bioscience, Bristol, United Kingdom, cat. 1254). The PDCs were cultured in complete DMEM/F12 media without 9.7 microM Y-27632 dihydrochloride for at least two passages prior to the screen. The established cell line HOP-62 was cultured in RPMI 1640 medium, HEPES (Invitrogen, cat. 22400105) with 10% defined fetal bovine serum (HyClone Laboratories Inc., cat. SH30070.03) and 2 mM L-glutamine (Invitrogen, cat. 25030081). The pooled donor HUVEC were cultured in endothelial cell growth medium 2 (PromoCell, Heidelberg, Germany, cat. C-22011) and the hMSC were cultured in mesenchymal stem cell growth medium 2 (PromoCell, cat. C-28009). For all experiments, HUVEC and hMSC were used at passages </=5, while the malignant cell lines were used at passages </=15. […]

[1] abbreviates: compound alone, run of 08/19/2021.
[2] abbreviates: compound alone, run of 08/26/2021.
The mark [3] stands for this setting: compound alone, run of 09/02/2021.

Where “and” joins values, the source holds several entries; their conditions need not be identical. Equal entries are not always repeated.

In PubChem BioAssay AID1963861 (Molecular Pharmacology Branch, DTP, NCI, 2024) one finds viability, T/C and IC50 data, which are given here for 12 molecules.

What is called viability, T/C is the result in the treated group divided by that in the control group, in per cent. As usually defined, the IC50 is the midpoint of a concentration-inhibition curve.
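Also: spheroids exposed to agents for 7 days before readout.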

As to `C=CC(=O)N1CCN(c2nc(=O)n(-c3c(C)ccnc3C(C)C)c3nc(-c4c(O)cccc4F)c(F)cc23)C(C)C1` (stereo not drawn), the viability, T/C by setting is: (compound 0.1 µM) 107% [middle of 15 runs]; (compound 0.316 µM) 107% [middle of 15 runs]; (compound 1 µM) 106% [middle of 15 runs]. For the same molecule, the 50% inhibitory concentration (IC50) under setting [1] is over 10 µM, the 50% inhibitory concentration (IC50) under setting [2] is over 10 µM and the IC50 under setting [3] is over 10 µM.

With `CC(C)NCC(C(=O)N1CCN(c2ncnc3c2C(C)CC3O)CC1)c1ccc(Cl)cc1` (stereo not drawn), the viability, T/C (compound 0.0316 µM) is 95.8% [middle of 5 runs]; the viability, T/C (compound 0.1 µM) was 83.2% [middle of 5 runs]; the viability, T/C (compound 0.316 µM) is 75.3% [middle of 5 runs]; the viability, T/C (compound 1 µM) was 75.9% [middle of 5 runs]; the viability, T/C (compound 3.16 µM) was 84.6% [middle of 5 runs]; the viability, T/C (compound 10 µM) was 56.9% [middle of 5 runs]. The IC50 (curve of compound) is over 10 µM.

For `CC1(C)CCC(CN2CCN(c3ccc(C(=O)NS(=O)(=O)c4ccc(NCC5CCOCC5)c([N+](=O)[O-])c4)c(Oc4cnc5[nH]ccc5c4)c3)CC2)=C(c2ccc(Cl)cc2)C1`, the viability, T/C (compound 0.0316 µM) is 100% [middle of 5 runs]; the viability, T/C (compound 0.1 µM) was 103% [middle of 5 runs]; the viability, T/C (compound 0.316 µM) is 100% [middle of 5 runs]; the viability, T/C (compound 1 µM) was 97.1% [middle of 5 runs]. Moreover, the IC50 (curve of compound) was 9.05 µM [middle of 5 runs].

Regarding `CCNC(=O)CC1N=C(c2ccc(Cl)cc2)c2cc(OC)ccc2-n2c(C)nnc21` (stereo not drawn), the viability, T/C was 112% [middle of 5 runs] (compound 0.0316 µM); 102% [middle of 5 runs] (compound 0.1 µM); 78.4% [middle of 5 runs] (compound 0.316 µM); 66.7% [middle of 5 runs] (compound 1 µM); 59.7% [middle of 5 runs] (compound 3.16 µM); 51.8% [middle of 5 runs] (compound 10 µM). In addition, the IC50 (curve of compound) is > 10 µM and 8.28 µM.

As for `CNCc1ccccc1-c1csc(C(C)Nc2nc(C)nc3cc(OC)c(OC)cc23)c1` (stereo not drawn), the viability, T/C (compound 0.1 µM) is 101% [middle of 15 runs]; the viability, T/C (compound 0.316 µM) is 101% [middle of 15 runs]; the viability, T/C (compound 10 µM) was 0.23% [middle of 13 runs]. The IC50 reads like this: under setting [2], 1.65 µM [middle of 5 runs]; under setting [3], 1.6 µM and 1.72 µM and 1.8 µM.

For `COC(=O)c1ccc2c(C(=Nc3ccc(N(C)C(=O)CN4CCN(C)CC4)cc3)c3ccccc3)c(O)[nH]c2c1`, the viability, T/C is, setting by setting: (compound 0.0316 µM) 99.8% [middle of 5 runs]; (compound 0.1 µM) 103% [middle of 5 runs]; (compound 0.316 µM) 98.2% [middle of 5 runs]; (compound 1 µM) 103% [middle of 5 runs]; (compound 3.16 µM) 29.4% [middle of 5 runs]; (compound 10 µM) 0.61% [middle of 5 runs]. Also, the IC50 (curve of compound) was 2.26 µM [middle of 5 runs].

On to `COc1cc(Nc2ncc3c(n2)-c2ccc(Cl)cc2C(c2c(F)cccc2OC)=NC3)ccc1C(=O)O`, for which the viability, T/C (compound 0.0316 µM) was 93.8% [middle of 5 runs]; the viability, T/C (compound 0.1 µM) is 89.1% [middle of 5 runs]; the viability, T/C (compound 0.316 µM) is 88.7% [middle of 5 runs]; the viability, T/C (compound 1 µM) was 90% [middle of 5 runs]; the viability, T/C (compound 3.16 µM) was 96.2% [middle of 5 runs]; the viability, T/C (compound 10 µM) was 98.4% [middle of 5 runs]. Moreover, the IC50 (curve of compound) was over 10 µM.

As to `COc1cc(OC)cc(N(CCNC(C)C)c2ccc3ncc(-c4cnn(C)c4)nc3c2)c1`, the viability, T/C was 103% [middle of 5 runs] (compound 0.0316 µM); 104% [middle of 5 runs] (compound 0.1 µM); 109% [middle of 5 runs] (compound 0.316 µM); 121% [middle of 5 runs] (compound 1 µM); 142% [middle of 5 runs] (compound 3.16 µM); 16.8% [middle of 5 runs] (compound 10 µM). Also, the IC50 (curve of compound) was 6.96 µM [middle of 5 runs].

Turning to `COc1cc2nc(C)nc(NC(C)c3cc(N)cc(C(F)(F)F)c3)c2cc1OC1CCOC1` (stereo not drawn), the IC50 under setting [1] was > 10 µM and 8.35 µM and 7.91 µM.

On to `COc1cc2nccc(Oc3ccc(NC(=O)C4(C(=O)Nc5ccc(F)cc5)CC4)cc3)c2cc1OC`, for which the viability, T/C was 111% [middle of 5 runs] (compound 0.0316 µM); 108% [middle of 5 runs] (compound 0.1 µM); 110% [middle of 5 runs] (compound 0.316 µM); 102% [middle of 5 runs] (compound 1 µM); 74.1% [middle of 5 runs] (compound 3.16 µM); 70.5% [middle of 5 runs] (compound 10 µM). Further, the IC50 (curve of compound) was over 10 µM.

As to `Cn1nccc1Nc1nccc(-c2cc3c(s2)C(C)(C)N(CCN2CCOCC2)C3=O)n1`, the viability, T/C by setting is: (compound 0.0316 µM) 99.9% and 99.7%; (compound 0.1 µM) 86.3% and 84.2%; (compound 0.316 µM) 59.1% and 65.2%; (compound 1 µM) 45.5% and 45.8%; (compound 3.16 µM) 35.7% and 37.9%; (compound 10 µM) 31.1% and 35.9%. In addition, the IC50 (curve of compound) was 0.665 µM and 0.799 µM.

As to `O=C(c1cc(Cc2n[nH]c(=O)c3ccccc23)ccc1F)N1CCN(C(=O)C2CC2)CC1`, the viability, T/C reads like this: (compound 0.0316 µM) 104% [middle of 5 runs]; (compound 0.1 µM) 106% [middle of 5 runs]; (compound 0.316 µM) 105% [middle of 5 runs]; (compound 1 µM) 106% [middle of 5 runs]; (compound 3.16 µM) 101% [middle of 5 runs]; (compound 10 µM) 82.5% [middle of 5 runs]. The IC50 (curve of compound) was over 10 µM.
